Laboratory results published in publication PMC10938439, “C-3 Steroidal Hemiesters as Inhibitors of 17β-Hydroxysteroid Dehydrogenase Type 10” (ACS Omega, 2024).
Values joined by “and” are separate entries in the source; they are usually repeats but may differ in a detail not shown here. Equal entries are not always repeated. Where two headings read alike, the source gives them in different places.

How the values were obtained:
17β-HSD10 [1] = test system: 17β-HSD10; design: method as in PMID 30297283; conditions: in vitro, recombinant enzyme, cited from earlier work
17β-HSD10 [2] = conditions: cited from earlier work; for Inhibition at 1 µM (%) Ayan et al. 2012: 1 µM steroid, different (cellular) assay, ref Ayan et al. 2012 (ref 18)
[3] = design: method as in PMID 30296546; conditions: cited from earlier work
[4] = design: method as in PMID 30296546; conditions: cited from earlier work; remark: listed apart in the source
17β-HSD10 [5] = target: T1, 17β-HSD10 (Homo sapiens, UniProt Q99714); assay: Inhibition of 17β-estradiol to estrone transformation by purified recombinant 17β-HSD10 (NADH fluorescence); format: biochemical; conditions: for IC50: purified recombinant 17β-HSD10, 17β-estradiol as substrate, means ± SEM (n = 4); for inhibition at 1 µM: read-out: Inhibition at 1 µM (%) (this study); for inhibition at 10 µM: read-out: Inhibition at 10 µM (%) (this study)
T1 construct: inferred from Ni-NTA purification with imidazole elution; made in house; host or cells: E. coli BL21 (DE3)
T1 sequence (Q99714 1-261): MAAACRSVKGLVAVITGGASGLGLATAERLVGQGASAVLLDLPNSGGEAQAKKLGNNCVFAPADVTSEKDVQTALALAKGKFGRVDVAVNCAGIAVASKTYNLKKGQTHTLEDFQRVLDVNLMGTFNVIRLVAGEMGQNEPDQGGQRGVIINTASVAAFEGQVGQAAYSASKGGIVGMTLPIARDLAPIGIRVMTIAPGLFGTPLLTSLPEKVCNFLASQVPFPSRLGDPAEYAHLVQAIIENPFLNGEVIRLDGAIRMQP
Description: As standards, we used the known inhibitor AG18051 as the positive control and the published steroidal compounds,[18] namely, pregnenolone, testosterone, dihydrotestosterone, androsterone, epiandrosterone, and dehydroepiandrosterone.
17β-HSD10 was performed as described previously.[11] Briefly, the autoinduction and overexpression were performed at 25 °C for 18 h in the E. coli BL21 (DE3) strain. The bacterial pellet was resuspended in lysis buffer that consisted of sodium phosphate buffer ([…]), NaCl (150 mM), and imidazole (10 mM, pH 8.0) with 1 mg/mL lysozyme and benzonase (150 U/mL). cOmplete EDTA-free protease inhibitor cocktail was incubated for 20 min on ice and then sonicated (12 × 10 s pulses with 30 s pauses). The supernatant was applied to the Ni-NTA agarose resin after centrifugation (16 000g, 10 min, 4 °C). Then, the solution was incubated on ice for 1 h with gentle stirring.
The standard steroids were screened at 1 and 10 μM concentrations, and the tested compounds and standard AG18051 were screened at 10 μM concentration. For compounds with at least 50% inhibition of 17β-HSD10, the IC50 values were determined.
Steroid stock solutions (5 mM) were further diluted with DMSO to the working concentrations. DMSO was used as a vehicle control, and AG18051 was used as a control inhibitor. The enzyme activity was determined fluorometrically at 37 °C in the activity assay buffer [100 mM potassium phosphate buffer (pH 8.0)]. The general reaction mixture (200 μL per well) consisted of 17β-estradiol (25 μM, DMSO), NAD+ (500 μM, deionized water), recombinant 17β-HSD10 (45 nM), and different concentrations of inhibitor (2.2% (v/v) final concentration of DMSO as solvent). Before the addition of substrate, the reaction mixture of enzyme, cofactor, and inhibitor in the assay buffer was preincubated for 5 min at 37 °C. The increase of fluorescence (Ex/Em = 340/460 nm) due to the formation of NADH was monitored for 20 min (30 s intervals). For IC50 value determination, dose–response inhibition at 11 different concentrations of inhibitor (0.6–33.75 μM) was determined and the data were analyzed by GraphPad Prism 8.4.3 (GraphPad Software Inc.). All measurements were performed in a tetraplicate.

Caco-2 cells = test system: Caco-2 cells; design: method as in PMID 30296546; conditions: cited from earlier work
HEK-293 cell line = test system: HEK-293 cell line; design: method as in PMID 37458164; conditions: cited from earlier work
17β-HSD10 [6] = test system: 17β-HSD10; design: method as in PMID 37458164; conditions: 17β-HSD10 inhibition, literature value; cited from earlier work
[7] = 10 μM compound, 17β-estradiol as substrate, means ± SD (n = 4)

COc1cccc(CN2CCN(C[C@@]3(O)CC[C@@]4(C)[C@@H](CC[C@@H]5[C@@H]4CC[C@]4(C)C(=O)CC[C@@H]54)C3)CC2)c1 [RM-532-46, (3α,5α,17α)-3-Hydroxy-3-[4-(3-methoxybenzyl)piperazin-1-yl]methylandrostan-17-one]
IC50 (17β-HSD10 [1]; 17β-estradiol, read-out: IC50 using 17β-estradiol as substrate): 610 µM | IC50 (17β-HSD10 [1]; allopregnanolone, read-out: IC50 using allopregnanolone as substrate): 235 µM | IC50 (17β-HSD10 [2]; cellular assay using HEK-293 cells): 0.55 µM

CC[C@H]1CC[C@H]2[C@@H]3CC=C4C[C@@H](OC(=O)CCCCC(=O)O)CC[C@]4(C)[C@H]3CC[C@]12C [Compound 16, Pregn-5-en-3β-yl Hemiadipate]
human plasma stability, % remaining after 8 h [3]: 94% | rat plasma stability, % remaining after 8 h [4]: 43% | IC50 (17β-HSD10 [5]): 9.29 ± 0.28 µM | Caco-2 cell permeability (50 μM) Papp (Caco-2 cells): 1.2 × 10^–6 cm/s

C[C@@]12CCC[C@H]1[C@@H]1CC=C3C[C@@H](OC(=O)CCCCCC(=O)O)CC[C@]3(C)[C@H]1CC2 [Compound 24, Androst-5-en-3β-yl Hemipimelate]
human plasma stability, % remaining after 8 h [3]: 100% | rat plasma stability, % remaining after 8 h [4]: 38% | IC50 (17β-HSD10 [5]): 7.17 ± 0.4 µM | Caco-2 cell permeability (50 μM) Papp (Caco-2 cells): 1.3 × 10^–6 cm/s

CC(=O)[C@H]1CC[C@H]2[C@@H]3CCC4=C[C@@H](O)CC[C@]4(C)[C@H]3CC[C@]12C [Compound 26]
toxicity for HEK-293 cell line (HEK-293 cell line): toxic

CC(=O)C1CCC2C3CC=C4CC(O)CCC4(C)C3CCC12C (stereo not shown) [pregnenolone]
inhibition at 1 µM (17β-HSD10 [5]; 1 µM steroid, 17β-estradiol as substrate, means ± SD (n = 4)): 0% | inhibition at 10 µM (17β-HSD10 [5]; [7]): 5.9 ± 0.8% | Inhibition at 1 µM (%) Ayan et al. 2012 (17β-HSD10 [2]): 11 ± 2.6%

C[C@@]12CCC[C@H]1[C@@H]1CC=C3C[C@@H](OC(=O)CCCC(=O)O)CC[C@]3(C)[C@H]1CC2 [Compound 22, Androst-5-en-3β-yl Hemiglutarate]
human plasma stability, % remaining after 8 h [3]: 98% | rat plasma stability, % remaining after 8 h [4]: 57% | IC50 (17β-HSD10 [5]): ~6.95 µM and 6.95 µM | Caco-2 cell permeability (50 μM) Papp (Caco-2 cells): 1.2 × 10^–5 cm/s

C[C@@]12CCC[C@H]1[C@@H]1CC=C3C[C@@H](OC(=O)CCC(=O)O)CC[C@]3(C)[C@H]1CC2 [Compound 21, Androst-5-en-3β-yl Hemisuccinate]
human plasma stability, % remaining after 8 h [3]: 99% | rat plasma stability, % remaining after 8 h [4]: 88% | IC50 (17β-HSD10 [5]): 7.33 ± 0.45 µM | Caco-2 cell permeability (50 μM) Papp (Caco-2 cells): 1.0 × 10^–4 cm/s

C[C@]12CC[C@H](O)C[C@@H]1CC[C@@H]1[C@@H]2CC[C@]2(C)C(=O)CC[C@@H]12 [epi-androsterone, epiandrosterone]
inhibition at 1 µM (17β-HSD10 [5]): 2 ± 4.9% | inhibition at 10 µM (17β-HSD10 [5]): 7 ± 2.5% | Inhibition at 1 µM (%) Ayan et al. 2012 (17β-HSD10 [2]): 6.0 ± 1.0%

C[C@]12CC[C@@H](O)C[C@@H]1CC[C@@H]1[C@@H]2CC[C@]2(C)C(=O)CC[C@@H]12 [androsterone]
inhibition at 1 µM (17β-HSD10 [5]): 3.2 ± 2.2% | inhibition at 10 µM (17β-HSD10 [5]): 0% | Inhibition at 1 µM (%) Ayan et al. 2012 (17β-HSD10 [2]): 7.0 ± 5.9%

C[C@]12CC[C@H]3[C@@H](CCC4=CC(=O)CC[C@@]43C)[C@@H]1CC[C@@H]2O [testosterone]
inhibition at 1 µM (17β-HSD10 [5]): 10.3 ± 5.1% | inhibition at 10 µM (17β-HSD10 [5]): 15.7 ± 3.8% | Inhibition at 1 µM (%) Ayan et al. 2012 (17β-HSD10 [2]): 0.0 ± 3.2%

C[C@]12CC[C@H](O)CC1=CC[C@@H]1[C@@H]2CC[C@]2(C)C(=O)CC[C@@H]12 [dehydroepiandrosterone]
inhibition at 1 µM (17β-HSD10 [5]): 5.4 ± 3.7% | inhibition at 10 µM (17β-HSD10 [5]): 6.6 ± 3.5% | Inhibition at 1 µM (%) Ayan et al. 2012 (17β-HSD10 [2]): 0.0 ± 3.2%

C[C@]12CCC(=O)C[C@@H]1CC[C@@H]1[C@@H]2CC[C@]2(C)[C@@H](O)CC[C@@H]12 [dihydrotestosterone]
inhibition at 1 µM (17β-HSD10 [5]): 0% | inhibition at 10 µM (17β-HSD10 [5]): 6.3 ± 2% | Inhibition at 1 µM (%) Ayan et al. 2012 (17β-HSD10 [2]): 15 ± 0.8%

CC(=O)[C@H]1CC[C@H]2[C@@H]3CC=C4C[C@@H](OC(=O)CCCC(=O)O)CC[C@]4(C)[C@H]3CC[C@]12C [Compound 10, 20-Oxo-pregn-5-en-3β-yl Hemiglutarate]
inhibition at 10 µM (17β-HSD10 [5]; [7]): ~50% | IC50 (17β-HSD10 [5]): 16.9 ± 1.33 µM

O=C(C(c1ccccc1)n1cnc2[nH]ncc2c1=S)N1CCCCCC1 (stereo not shown) [AG18051, 1-azepan-1-yl-2-phenyl-2-(4-thioxo-1,4-dihydropyrazolo [3–d]pyrimidin-5-yl)-ethanone]
IC50 (17β-HSD10 [6]): 0.09 ± 0.01 µM

CC[C@H]1CC[C@H]2[C@@H]3CC=C4C[C@@H](OC(=O)CCC(=O)O)CC[C@]4(C)[C@H]3CC[C@]12C [Compound 14, Pregn-5-en-3β-yl Hemisuccinate]
human plasma stability, % remaining after 8 h [3]: 100% | rat plasma stability, % remaining after 8 h [4]: 55% | IC50 (17β-HSD10 [5]): 9.94 ± 0.23 µM | Caco-2 cell permeability (50 μM) Papp (Caco-2 cells): 5.7 × 10^–6 cm/s

CC[C@H]1CC[C@H]2[C@@H]3CC=C4C[C@@H](OC(=O)CCCC(=O)O)CC[C@]4(C)[C@H]3CC[C@]12C [Compound 15, Pregn-5-en-3β-yl Hemiglutarate]
human plasma stability, % remaining after 8 h [3]: 100% | rat plasma stability, % remaining after 8 h [4]: 99% | IC50 (17β-HSD10 [5]): 9.01 ± 0.43 µM | Caco-2 cell permeability (50 μM) Papp (Caco-2 cells): 1.9 × 10^–6 cm/s
